Reference: ChEMBL document CHEMBL1821612, “Discovery of novel antitubercular 3a,4-dihydro-3H-indeno[1,2-c]pyrazole-2-carboxamide/carbothioamide analogues” (Bioorg Med Chem Lett, 2011)
Converted amounts (≈) assume the structure as drawn.

Each molecule was assayed on Mycobacterium tuberculosis (assay: Antimycobacterial activity against isoniazid-resistant Mycobacterium tuberculosis after 2 weeks by BACTEC 460 radiometric method). Details: 336 h.
Format: functional

Structure (SMILES) | MIC [µM]
COc1cc2c(cc1OC)C1=NN(C(N)=S)C(c3ccncc3)C1C2 (stereo unspecified) | 10 (≈ 3.54 µg/mL)
NNC(=O)c1ccncc1 [ISONIAZID] | 12.5 (≈ 1.71 µg/mL)
CO[C@H]1/C=C/O[C@@]2(C)Oc3c(C)c(O)c4c(O)c(c(/C=N/N5CCN(C)CC5)c(O)c4c3C2=O)NC(=O)/C(C)=C\C=C\[C@H](C)[C@H](O)[C@@H](C)[C@@H](O)[C@@H](C)[C@H](OC(C)=O)[C@@H]1C [RIFAMPIN] | 3.12 (≈ 2.57 µg/mL)
COc1cc2c(cc1OC)C1=NN(C(=O)Nc3ccc(C)cc3C)C(c3ccncc3)C1C2 (stereo unspecified) | > 12.5
COc1cc2c(cc1OC)C1=NN(C(=O)Nc3ccc(C)cc3C)C(c3ccccc3)C1C2 (stereo unspecified) | > 12.5
COc1cc2c(cc1OC)C1=NN(C(N)=S)C(c3ccccc3)C1C2 (stereo unspecified) | 12.5 (≈ 4.42 µg/mL)
COc1cc2c(cc1OC)C1=NN(C(=O)Nc3c(C)cccc3C)C(c3ccncc3)C1C2 (stereo unspecified) | > 12.5
COc1cc2c(cc1OC)C1=NN(C(N)=S)C(c3ccccc3Cl)C1C2 (stereo unspecified) | 10 (≈ 3.88 µg/mL)
COc1cc2c(cc1OC)C1=NN(C(N)=S)C(c3ccc(F)cc3)C1C2 (stereo unspecified) | 6.25 (≈ 2.32 µg/mL)
COc1ccc(C2C3Cc4cc(OC)c(OC)cc4C3=NN2C(N)=S)cc1 (stereo unspecified) | > 12.5
COc1ccc(C2C3Cc4cc(OC)c(OC)cc4C3=NN2C(=O)Nc2ccc(C)cc2C)cc1 (stereo unspecified) | > 12.5
COc1cc2c(cc1OC)C1=NN(C(=O)Nc3c(C)cccc3C)C(c3ccccc3Cl)C1C2 (stereo unspecified) | 12.5 (≈ 5.95 µg/mL)
COc1cc2c(cc1OC)C1=NN(C(=O)Nc3c(C)cccc3C)C(c3ccc(F)cc3)C1C2 (stereo unspecified) | 10 (≈ 4.6 µg/mL)
COc1cc2c(cc1OC)C1=NN(C(=O)Nc3ccc(C)cc3C)C(c3ccccc3Cl)C1C2 (stereo unspecified) | 10 (≈ 4.76 µg/mL)
COc1ccc(C2C3Cc4cc(OC)c(OC)cc4C3=NN2C(=O)Nc2c(C)cccc2C)cc1OC (stereo unspecified) | > 12.5
COc1ccc(C2C3Cc4cc(OC)c(OC)cc4C3=NN2C(=O)Nc2c(C)cccc2C)cc1 (stereo unspecified) | > 12.5
COc1ccc(C2C3Cc4cc(OC)c(OC)cc4C3=NN2C(N)=S)cc1OC (stereo unspecified) | 12.5 (≈ 5.17 µg/mL)
COc1ccc(C2C3Cc4cc(OC)c(OC)cc4C3=NN2C(=O)Nc2ccc(C)cc2C)cc1OC (stereo unspecified) | > 12.5
COc1cc2c(cc1OC)C1=NN(C(=O)Nc3ccc(C)cc3C)C(c3ccc(F)cc3)C1C2 (stereo unspecified) | 12.5 (≈ 5.74 µg/mL)
COc1cc2c(cc1OC)C1=NN(C(=O)Nc3c(C)cccc3C)C(c3ccccc3)C1C2 (stereo unspecified) | > 12.5

These molecules were tested on Mycobacterium tuberculosis (assay: Ratio of isoniazid MIC to compound MIC for isoniazid-resistant Mycobacterium tuberculosis). Details: not given.
Format: functional

Structure (SMILES) | Ratio
COc1cc2c(cc1OC)C1=NN(C(N)=S)C(c3ccc(F)cc3)C1C2 (stereo unspecified) | 2
